In the supplement of paper PMC4862054:
Values joined by “and” are separate entries in the source; they are usually repeats but may differ in a detail not shown here. Equal entries are not always repeated.

Assays:
[1] = tested on: CAL-148; experiment: normalised viability (% of control), CellTiter-Blue; higher = more viable cells (about 100 = DMSO control); conditions: incubation time: 72 h
Protocol: (§1)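 DSRT, CellTiter-Blue viability, 72 h incubation. Signal is normalised to DMSO and benzethonium chloride controls. Value is the normalised response at dose 9.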

[2] = tested on: CAL-51; experiment: as above; conditions: incubation time: 72 h
Protocol: as §1

[3] = tested on: CAL-85-1; experiment: as above; conditions: incubation time: 72 h
Protocol: as §1

[4] = tested on: DU-4475; experiment: as above; conditions: incubation time: 72 h
Protocol: as §1

[5] = tested on: HDQ-P1; experiment: as above; conditions: incubation time: 72 h
Protocol: as §1

[6] = tested on: MDA-MB-453; experiment: as above; conditions: incubation time: 72 h
Protocol: as §1

[7] = tested on: CAL-120; conditions: 72 h
Method in brief: (§2)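 Viability of breast cancer cell lines was measured with CellTiter-Blue after 72 h of incubation on compound-loaded 384-well plates. Cells were seeded in 20 µl onto compound dissolved in 5 µl medium, and 2.5 µl reagent was added for 2 h at 37 °C before reading at 560/590 nm. EC50 was fitted from percent-inhibition dose-response data censored at the highest concentration, normalised per plate to vehicle and a positive kill control, with zero drug sensitivity score rows dropped.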

[8] = tested on: HCC1143; conditions: 72 h
Method in brief: as §2

[9] = tested on: Hs578T; conditions: 72 h
Method in brief: as §2

[10] = tested on: MDA-MB-468; conditions: 72 h
Method in brief: as §2

[11] = tested on: SK-BR-3; conditions: 72 h
Method in brief: as §2

[12] = tested on: BT-474; experiment: drug sensitivity score (DSS), CellTiter-Glo (DSS (AUC-based score)); higher = stronger drug effect (viability inhibition or cytotoxicity); extreme values may be limits of the assay; conditions: incubation time: 72 h
Method in brief: (§3)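 Breast cancer cell lines were seeded in 20 µl suspension into 384-well plates already holding compound and incubated for 72 h. Each compound was tested at 5 concentrations in 10-fold steps across its own 10,000-fold range. Plates were normalised to 0.1 % DMSO and a positive kill control after CellTox Green and then CellTiter-Glo readings. The area under the fitted dose-response curve served as the basis for the drug sensitivity score.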

[13] = tested on: CAL-51; experiment: as above; conditions: incubation time: 72 h
Method in brief: as §3

[14] = tested on: DU-4475; experiment: as above; conditions: incubation time: 72 h
Method in brief: as §3

[15] = tested on: SK-BR-3; experiment: as above; conditions: incubation time: 72 h
Method in brief: as §3

[16] = tested on: BT-549; conditions: 72 h
Method in brief: as §2

[17] = tested on: HCC1937; conditions: 72 h
Method in brief: as §2

[18] = tested on: CAL-148; experiment: normalised viability (% of control), CellTiter-Blue; higher = more viable cells (about 100 = DMSO control); conditions: incubation time: 72 h; remark: listed apart in the source
Protocol: (§4)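 DSRT, CellTiter-Blue viability, 72 h incubation. Signal is normalised to DMSO and benzethonium chloride controls. Value is the normalised response at dose 7.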

[19] = tested on: CAL-51; experiment: as above; conditions: incubation time: 72 h; remark: listed apart in the source
Protocol: as §4

[20] = tested on: CAL-85-1; experiment: as above; conditions: incubation time: 72 h; remark: listed apart in the source
Protocol: as §4

[21] = tested on: DU-4475; experiment: as above; conditions: incubation time: 72 h; remark: listed apart in the source
Protocol: as §4

[22] = tested on: HDQ-P1; experiment: as above; conditions: incubation time: 72 h; remark: listed apart in the source
Protocol: as §4

[23] = tested on: MDA-MB-453; experiment: as above; conditions: incubation time: 72 h; remark: listed apart in the source
Protocol: as §4

[24] = tested on: DU-4475; experiment: normalised response (% of control), CellTiter-Glo; higher = more viable cells (100 = DMSO, 0 = benzethonium chloride kill control); conditions: incubation time: 72 h
Method in brief: (§5)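 Breast cancer cell lines, seeded at 20 µl suspension per well, were incubated for 72 h in 384-well plates containing compound at 5 concentrations. These concentrations rose in 10-fold steps over a 10,000-fold range set for each compound. CellTox Green fluorescence (485/520 nm) was read, then CellTiter-Glo luminescence after 10 min at room temperature, and each plate was normalised to 0.1 % DMSO (100) and a positive kill control (0). Values are normalised signals, each at one concentration.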

[25] = tested on: HCC1599; experiment: as above; conditions: incubation time: 72 h
Method in brief: as §5

[26] = tested on: HDQ-P1; experiment: as above; conditions: incubation time: 72 h
Method in brief: as §5

[27] = tested on: MCF-10A; experiment: as above; conditions: incubation time: 72 h
Method in brief: as §5

[28] = tested on: SK-BR-3; experiment: as above; conditions: incubation time: 72 h
Method in brief: as §5

[29] = tested on: MDA-MB-231; conditions: 72 h
Method in brief: as §2

Work on `C=CCn1c(=O)c2cnc(Nc3ccc(N4CCN(C)CC4)cc3)nc2n1-c1cccc(C(C)(C)O)n1` [MK1775] (10000 nM) yielded a normalised viability [1] of 5.88%, a normalised viability [2] of 2.98% and a normalised viability [3] of 17.4%. It also gave a normalised viability [4] of 2.68%, a normalised viability [5] of 16% and a normalised viability [6] of 15.2%.
`CN(Cc1cnc2nc(N)nc(N)c2n1)c1ccc(C(=O)N[C@@H](CCC(=O)O)C(=O)O)cc1` [Methotrexate] was tested, and the “EC50, CellTiter-Blue viability” value [7] was 15.9 nM, the “EC50, CellTiter-Blue viability” value [8] was 15.2 nM and the “EC50, CellTiter-Blue viability” value [9] was 51.5 nM. For the same molecule, the “EC50, CellTiter-Blue viability” value [10] was 25.1 nM, the “EC50, CellTiter-Blue viability” value [11] was 23.5 nM and the drug sensitivity score [12] was 7.54. The drug sensitivity score [13] was 16.2, the drug sensitivity score [14] was 0 and the drug sensitivity score [15] was 0.
In the case of `CO[C@@H]1[C@H](N(C)C(=O)c2ccccc2)C[C@H]2O[C@]1(C)n1c3ccccc3c3c4c(c5c6ccccc6n2c5c31)C(=O)NC4` [Midostaurin] (10000 nM), the normalised viability [1] was 86.3%, the normalised viability [2] was 4.73% and the normalised viability [3] was 78.9%. For the same molecule, the normalised viability [4] was 3.76%, the normalised viability [5] was 80.1% and the normalised viability [6] was 61.4%.
`CO[C@@]12[C@H](COC(N)=O)C3=C(C(=O)C(C)=C(N)C3=O)N1C[C@@H]1N[C@@H]12` [Mitomycin C] (10000 nM) was tested, and the normalised viability [1] was 1.89%, the normalised viability [2] was 4.34% and the normalised viability [3] was 2.67%. For the same molecule, the normalised viability [4] was -0.46%, the normalised viability [5] was 42.6% and the normalised viability [6] was 5.36%.
`CCNC(=O)c1noc(-c2cc(C(C)C)c(O)cc2O)c1-c1ccc(CN2CCOCC2)cc1` [NVP-AUY922] (1000 nM) showed a normalised viability [1] of 18.6%, a normalised viability [2] of 8.3% and a normalised viability [3] of 26.6%. It also gave a normalised viability [4] of 2.34%, a normalised viability [5] of 32.7% and a normalised viability [6] of 7.53%.
Molecule `CC1(C)CCC(c2ccc(Cl)cc2)=C(CN2CCN(c3ccc(C(=O)NS(=O)(=O)c4ccc(N[C@H](CCN5CCOCC5)CSc5ccccc5)c(S(=O)(=O)C(F)(F)F)c4)cc3)CC2)C1` [Navitoclax] (10000 nM) has a normalised viability [1] of 66.7%, a normalised viability [2] of 77% and a normalised viability [3] of 71.3%. The normalised viability [4] was 4.02%, the normalised viability [5] was 60.2% and the normalised viability [6] was 52.7%.
In the case of `Cc1cn(-c2cc(NC(=O)c3ccc(C)c(Nc4nccc(-c5cccnc5)n4)c3)cc(C(F)(F)F)c2)cn1` [Nilotinib], the “EC50, CellTiter-Blue viability” value [16] was 2590 nM, the “EC50, CellTiter-Blue viability” value [17] was 117 nM and the drug sensitivity score [12] was 0. For the same molecule, the drug sensitivity score [13] was 6.22, the drug sensitivity score [14] was 0 and the drug sensitivity score [15] was 0.
`Cc1cn(-c2cc(NC(=O)c3ccc(C)c(Nc4nccc(-c5cccnc5)n4)c3)cc(C(F)(F)F)c2)cn1` [Nilotinib] (1000 nM) was tested, and the normalised viability [18] was 93.5% and 93.9%, the normalised viability [19] was 107% and 117% and the normalised viability [20] was 84.7% and 89.2%. The normalised viability [21] was 113% and 98.9%, the normalised viability [22] was 91.7% and 81.1% and the normalised viability [23] was 88.3% and 97.5%. For the same molecule, the normalised response [24] was 97.7%, the normalised response [25] was 105% and the normalised response [26] was 104%. For the same molecule, the normalised response [27] was 107% and the normalised response [28] was 97.5%.
`Cc1cn(-c2cc(NC(=O)c3ccc(C)c(Nc4nccc(-c5cccnc5)n4)c3)cc(C(F)(F)F)c2)cn1` [Nilotinib] (10000 nM) was tested, and the normalised viability [1] was 89.7% and 84.6%, the normalised viability [2] was 103% and 100% and the normalised viability [3] was 86.3% and 84.9%. For the same molecule, the normalised viability [4] was 102% and 86.8%, the normalised viability [5] was 84.2% and 86.2% and the normalised viability [6] was 106% and 94.7%.
`C=CCN(/C=C1/C(=O)O[C@H](COC)[C@@]2(C)C1=C(O)C(=O)C1=C2[C@H](OC(C)=O)C[C@]2(C)C(=O)CC[C@@H]12)CC=C` [PX-866] was tested, and the “EC50, CellTiter-Blue viability” value [7] was 1020 nM, the “EC50, CellTiter-Blue viability” value [8] was 1130 nM and the “EC50, CellTiter-Blue viability” value [17] was 725 nM. The “EC50, CellTiter-Blue viability” value [9] was 6750 nM, the “EC50, CellTiter-Blue viability” value [29] was 951 nM and the “EC50, CellTiter-Blue viability” value [10] was 1390 nM. For the same molecule, the “EC50, CellTiter-Blue viability” value [11] was 1320 nM.
`O=C(CCCCCCC(=O)Nc1ccccc1)NO` [Vorinostat] (1000 nM) was tested, and the normalised viability [18] was 83.7% and 89.3%, the normalised viability [19] was 107% and 99.4% and the normalised viability [20] was 84% and 86.3%. For the same molecule, the normalised viability [21] was 103% and 97.4%, the normalised viability [22] was 80.8% and 62.8% and the normalised viability [23] was 51.6% and 54.1%. The normalised response [24] was 86.5%, the normalised response [25] was 98.9% and the normalised response [26] was 85%. The normalised response [27] was 104% and the normalised response [28] was 89.5%.
`O=C(CCCCCCC(=O)Nc1ccccc1)NO` [Vorinostat] (10000 nM) was tested, and the normalised viability [1] was 13.3% and 16%, the normalised viability [2] was 59.7% and 50.3% and the normalised viability [3] was 30.1% and 32.4%. The normalised viability [4] was 50.1% and 46.5%, the normalised viability [5] was 51.6% and 62.6% and the normalised viability [6] was 3.12% and 2.8%.
